The text below walks through data of PubChem BioAssay (NCI).

Experiment in all cases: growth of human tumour cells (NCI), 48 h
In assay [1] the test system is MDA-MB-231 breast.
The test system of assay [2] is U251 CNS.
In assay [3] the test system is UO-31 renal.
The subject of assay [4] is SK-MEL-5 melanoma.
Assay [5] deals with HCT-116 colon.
Assay [6] concerns NCI-H23 lung.
Assay [7] relates to SK-MEL-2 melanoma.
Assay [8] relates to M14 melanoma.
Assay [9] has as its system TK-10 renal.
Assay [10] concerns SF-539 CNS.
Assay [11] relates to HT29 colon.
The subject of assay [12] is MALME-3M melanoma.
For assay [13], the system named is SK-OV-3 ovarian.
The test system of assay [14] is DU-145 prostate.
The subject of assay [15] is OVCAR-8 ovarian.
Assay [16] deals with MDA-MB-435.
In assay [17] the test system is MCF7 breast.
The subject of assay [18] is UACC-257 melanoma.
The test system of assay [19] is MOLT-4 leukemia.
Assay [20] relates to CAKI-1 renal.

Molecules are shown by their SMILES.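 96-well plates; 48 h exposure; 5 concentrations. Endpoints by linear interpolation between flanking doses. Not reached: highest tested concentration assigned. TGI denotes the concentration required for complete inhibition of growth.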

`CN(C)CCCn1c(Cc2ccc(Cl)cc2)nc2cc(C(F)(F)F)ccc21`: the TGI in assay [1] is 26.5 µM; in [2], 28.6 µM; in assay [3], 1 µM; in assay [4] it was 32.5 µM; in assay [5], 25 µM; in assay [6], 31.4 µM. For the same molecule, the TGI in assay [7] is 31 µM; in assay [8] it was 25.6 µM; in assay [9] it was 29.6 µM; in assay [10], 32.2 µM; in assay [11] it was 29.8 µM; in [12], 24 µM. The TGI in assay [13] turned out to be 28.2 µM; in assay [14], 27.2 µM; in [15] it was 33.4 µM; in [16], 26.6 µM; in assay [17], 27.6 µM; in assay [18], 30.1 µM. Further, the TGI in assay [19] was found to be 34.5 µM; in [20] it was 27.3 µM.

Consider `CC1(C)CC2=C(Sc3ccccc3N2)C(=O)C1C(=O)C(=O)Nc1cccc([N+](=O)[O-])c1` (stereo not given), for which the TGI in assay [1], in [2], in assay [3], in [4], in assay [5] and in assay [6] was over 100 µM in each case. The TGI in assay [7], in [8], in assay [9], in assay [10], in assay [11] and in [12] was over 100 µM each time. Also, the TGI in [13], in assay [14], in assay [15], in assay [16], in [17] and in [18] was over 100 µM in each case. The TGI in assay [19] and in assay [20] was over 100 µM each time.

With `N#CC(C#N)=C/C=C(\Sc1c(Cl)c(Cl)nc(Cl)c1Cl)c1ccc(Cl)cc1`, the TGI is 60 µM in [1]; 33.3 µM in assay [2]; over 100 µM in [3]; 27.7 µM in assay [4]; 34.8 µM in [5]; 35.9 µM in assay [6]. Moreover, the TGI in [7] is over 100 µM; in [8] it was 38.9 µM; in [9], 41.2 µM; in [10], 41.8 µM; in assay [11] it was over 100 µM; in [12], 46.6 µM. Moreover, the TGI was 58.9 µM in assay [13]; 47.5 µM in [14]; over 100 µM in [15]; 20.3 µM in assay [16]; over 100 µM in assay [17]; 37.2 µM in [18]. The TGI in assay [19] is over 100 µM; in assay [20], 34.2 µM.

In the case of `COc1cccc2c1CCc1cc3c(N)nc(N)nc3nc1-2`, the TGI was 15.9 µM in assay [1]; over 38.3 µM in assay [2]; 9.7 µM in assay [3]; 10.2 µM in [4]; 8.09 µM in [5]; 18.2 µM in assay [6]. In addition, the TGI in [7] turned out to be 33.9 µM; in [8], 20.9 µM; in assay [9] it was 47.3 µM; in [10], 9.16 µM; in [11], 17.3 µM; in [12], 10.3 µM. The TGI in assay [13] worked out at 40.3 µM; in assay [14], 23.8 µM; in assay [15], 21.7 µM; in assay [16], 27.4 µM; in assay [17], 47.9 µM; in assay [18] it was 31.4 µM. Further, the TGI was over 100 µM in assay [19] and 45.7 µM in assay [20].

For `CC1CN=C(Nc2ccccc2)S1` (stereo not given), the TGI in [1], in assay [2], in [3], in assay [4], in assay [5] and in [6] was over 100 µM in each case. The TGI in assay [7], in assay [8], in assay [9], in [10], in assay [11] and in assay [12] was over 100 µM in each case. Moreover, the TGI in assay [13], in assay [14], in [15], in [16], in [17] and in assay [18] was over 100 µM in each case. The TGI in assay [19] and in assay [20] was over 100 µM each time.

Turning to `COc1ccc(N2C(=O)[C@H]3[C@H]4CC(C(C)(C)C)CC[C@H]4c4c(n(C)c5ccccc45)[C@H]3C2=O)cc1` (stereo not given in full), the TGI in assay [1] was over 100 µM; in assay [2], over 56.2 µM; in assay [3] it was over 100 µM; in assay [4], over 100 µM; in assay [5], over 100 µM; in assay [6], over 100 µM. Further, the TGI in [7] was over 100 µM; in assay [8] it was over 100 µM; in assay [9], over 100 µM; in assay [10], over 46.4 µM; in assay [11] it was over 100 µM; in assay [12], over 100 µM. Also, the TGI is over 100 µM in assay [13]; over 100 µM in [14]; over 100 µM in [15]; over 100 µM in assay [16]; over 46.4 µM in [17]; over 100 µM in [18]. Also, the TGI in assay [19] and in assay [20] was over 100 µM each time.

As to `CC1(C)CCc2c(c(N=Nc3ccc(S(N)(=O)=O)cc3)c3ccccc3c2O)O1`, the TGI in assay [1] was found to be 8.77 µM; in assay [2], 20.9 µM; in assay [3] it was 40.4 µM; in [4], 8.1 µM; in assay [5], 34.7 µM; in assay [6], 24.5 µM. Besides, the TGI came to 83.8 µM in assay [7]; 38.2 µM in [8]; 38 µM in [9]; 22.2 µM in assay [10]; 38.1 µM in assay [11]; 15.8 µM in assay [12]. Besides, the TGI came to 16.2 µM in [13]; 25 µM in assay [14]; 28.7 µM in [15]; 22.5 µM in assay [16]; 33.1 µM in [17]; 21.3 µM in assay [18]. Further, the TGI was 82.7 µM in assay [19] and 62.1 µM in assay [20].
